Test results as given in patent publication US20240398824A1, “Inhibition Of Rip Kinases For Treating Neurodegenerative Disorders” (The Johns Hopkins University, priority 2018, published 2024).

Test system: BV-2 microglia
Experiment: Real-time PCR of C1q, IL-6 and TNFα in AβO-activated BV-2 microglia
Assay type: cell-based
Parameters: key to mRNA levels of C1q / mRNA levels of IL-6 / mRNA levels of TNFα: relative expression normalized to GAPDH by 2^-ΔΔCt; PBS = 1
Details: for mRNA levels of IL-6 / mRNA levels of C1q / mRNA levels of TNFα: BV-2 microglia preincubated 1 h with inhibitor 1 μM, then AβO 5 μM 4 h, ±SD; for mRNA levels of IL-6: PBS = 1 ± 0.08, Abeta alone 12.53 ± 0.59; for mRNA levels of C1q: PBS = 1 ± 0.13, Abeta alone 3.7 ± 0.06; for mRNA levels of TNFα: PBS = 1 ± 0.16, Abeta alone 16.19 ± 3.21; for microglial activation / release of multiple inflammatory mediators including C1q, IL-6 and TNFα: inhibitor 1 μM pretreatment, AβO 5 μM, in words
Protocol: Synthetic Abeta1-42 oligomers were generated as previously described (PMID: 27834631). Hydroxyfluroisopropanol (HFIP)-treated synthethic Abeta1-42 peptides (rPeptide, Bogart, GA, USA) were dissolved in dimethylsulfoxide (DMSO) and further diluted in phosphate-buffered saline (PBS) to obtain a 250 μM stock solution. The stock solution was incubated at 4° C. for at least 24 hours and stored at −80° C. until use. Before use, the solution was centrifuged at 12,000 g for 10 minutes and the supernatant was used as an oligomeric Aβ.
BV-2 microglial cells were cultured in DMEM media. 10^6 of BV-2 microglia in 6 well plate were treated with 2.5 μM of Abeta for 4 hrs. Total RNA from cultured cells was extracted with a RNA isolation kit (Qiagen, Valencia, CA, USA) following manufacturer's instructions. RNA concentration was measured spectrophotometrically using a NanoDrop 2000 (Thermo scientific). Subsequently, 2 μg of total RNA was reverse transcribed to cDNA using the High-Capacity cDNA Reverse Transcription System (Life Technologies, Grand Island, NY, USA). Comparative qPCR was performed using fast SYBR Green Master Mix (Life Technologies) and steponeplus real-time pcr system (Applied Biosystems, Foster City, CA, USA). The expression levels of target genes were normalized to the expression of GAPDH and calculated based on the comparative cycle threshold Ct method^−ΔΔ(2) Ct. (n=3)
To examine the effect of RIPK2 inhibition, 10^6 of BV-2 microglia in 6 well plate were preincubated with DMSO, GSK583 (1 μM, Medchemexpress), OD361 (1 μM, Calbiochem), or Sorafenib (1 μM) for one hour. For mRNA analysis, 5 μM of AβO was treated additional for 4 hours.

With `Clc1cc2cc(c1)-c1cnn3c1NC(=NCCOCCO2)C=C3` [OD36, 6-Chloro-10,11,14,17-tetrahydro-13H-1,16-etheno-4,8-metheno-1H-pyrazolo[3,4-g][1,14,4,6]dioxadiazacyclohexadecine] the “mRNA levels of IL-6” value was 7.64 ± 0.48, the “mRNA levels of C1q” value was 0.85 ± 0.12 and the “mRNA levels of TNFα” value was 5.85 ± 0.03. The microglial activation was “blocked microglial activation” and the “release of multiple inflammatory mediators including C1q, IL-6 and TNFα” value was “significantly reduced”.
For `CNC(=O)c1cc(Oc2ccc(NC(=O)Nc3ccc(Cl)c(C(F)(F)F)c3)cc2)ccn1` [Sorafenib], the “mRNA levels of IL-6” value was 7.13 ± 0.71, the “mRNA levels of C1q” value was 3.3 ± 0.09 and the “mRNA levels of TNFα” value was 9.69 ± 0.47. For the same compound, the microglial activation was “blocked microglial activation” and the “release of multiple inflammatory mediators including C1q, IL-6 and TNFα” value was “significantly reduced”.
